The values that follow come from paper PMC3516633 (European journal of medicinal chemistry, 2012).

One test relates to 15 different cancer cell lines.
Assay: not given
Conditions: read-out: mean EC50 averaged from 15 different cancer cell lines; cited from earlier work.
As a reminder, the EC50 is the concentration that produces a half-maximal response. For the molecule `CO[C@@H](C(=O)N1Cc2[nH]nc(NC(=O)c3ccc(N4CCN(C)CC4)cc3)c2C1)c1ccccc1` [Compound 1, danusertib], the half-maximal effective concentration (EC50) is 123 nM.

A further test concerns the target T1, TbAUK1 (Trypanosoma brucei brucei, UniProt Q384J7).
Assay: not given
As to conditions: at 200 nM; cited from earlier work.
For `CCS(=O)(=O)Nc1ccc2c(c1)/C(=C(/Nc1ccc(CN3CCCCC3)cc1)c1ccccc1)C(=O)N2` [Hesperadin, hesperadin], the “inhibition of TbAUK1 kinase activity” value is recorded as “to the level of a background kinase”.

The target of the next test is T1, TbAUK1. Nature of the test: in vitro kinase assay with immunoprecipitated AU1-tagged TbAUK1. It is filed as biochemical. As to conditions: tested at 500 nM; AU1-tagged TbAUK1 pull-down, MBP substrate.
In the case of `CCS(=O)(=O)Nc1ccc2c(c1)/C(=C(/Nc1ccc(CN3CCCCC3)cc1)c1ccccc1)C(=O)N2` [Hesperadin, hesperadin], the “inhibition of TbAUK1 kinase activity” value is listed as “completely inhibited TbAUK1”.
Turning to `CO[C@@H](C(=O)N1Cc2[nH]nc(NC(=O)c3ccc(N4CCN(C)CC4)cc3)c2C1)c1ccccc1` [Compound 1, danusertib], the “inhibition of TbAUK1 kinase activity” value was “inhibited TbAUK1 to the same background level as hesperadin”.
On to `CCc1cccc(CC)c1NC(=O)N1Cc2[nH]nc(NC(=O)c3ccc(N4CCN(C)CC4)cc3)c2C1` [Compound 2, PHA-680632], for which the “inhibition of TbAUK1 kinase activity” value is “inhibited TbAUK1 to the same background level as hesperadin”.

A further test concerns T. brucei rhodesiense YTAT1.1 strain. Nature of the test: dose-response against T. b. rhodesiense cultures, Cell Titer Blue assay. Type of test: cell-based, Trypanosoma brucei rhodesiense. Conditions: ratio MOLT-4 EC50 / T. b. rhodesiense EC50. A general note: Resazurin is reduced to fluorescent resorufin, in cell work by metabolically active cells.
On to `CN1CCN(c2ccc(C(=O)Nc3n[nH]c4c3CN(C(=O)Cc3cccc5ccccc35)C4)cc2)CC1` [Compound 8, 4-(4-Methylpiperazin-1-yl)-N-(5-(2-(naphthalen-1-yl)acetyl)-1,4,5,6-tetrahydropyrrolo[3,4-c]pyrazol-3-yl)benzamide], for which the “Selectivity MOLT/Tbr” value came out at 23.4.
For the molecule `CN1CCN(c2ccc(C(=O)Nc3n[nH]c4c3CN(C(=O)Cc3c(F)ccc(F)c3F)C4)cc2)CC1` [Compound 9, 4-(4-Methylpiperazin-1-yl)-N-(5-(2-(2,3,6-trifluorophenyl)acetyl)-1,4,5,6-tetrahydropyrrolo[3,4-c]pyrazol-3-yl)benzamide], the “Selectivity MOLT/Tbr” value is 6.9.
The same measure, in the same setting: with `Cc1ccc(C)c(CC(=O)N2Cc3[nH]nc(NC(=O)c4ccc(N5CCN(C)CC5)cc4)c3C2)c1` [Compound 15, N-(5-(2-(2,5-Dimethylphenyl)acetyl)-1,4,5,6-tetrahydropyrrolo[3,4-c]pyrazol-3-yl)-4-(4-methylpiperazin-1-yl)benzamide] the figure was 2.2; with `Cc1cc(C)cc(CC(=O)N2Cc3[nH]nc(NC(=O)c4ccc(N5CCN(C)CC5)cc4)c3C2)c1` [Compound 14, N-(5-(2-(3,5-Dimethylphenyl)acetyl)-1,4,5,6-tetrahydropyrrolo[3,4-c]pyrazol-3-yl)-4-(4-methylpiperazin-1-yl)benzamide], 4.3; with `Cc1ccc(C(C)C(=O)N2Cc3[nH]nc(NC(=O)c4ccc(N5CCN(C)CC5)cc4)c3C2)cc1` (centres unmarked) [Compound 13, 4-(4-Methylpiperazin-1-yl)-N-(5-(2-(p-tolyl)propanoyl)-1,4,5,6-tetrahydropyrrolo[3,4-c]pyrazol-3-yl)benzamide], 6.4.
Take `CN1CCN(c2ccc(C(=O)Nc3n[nH]c4c3CN(C(=O)Cc3cccc(Cl)c3)C4)cc2)CC1` [Compound 11, N-(5-(2-(3-Chlorophenyl)acetyl)-1,4,5,6-tetrahydropyrrolo[3,4-c]pyrazol-3-yl)-4-(4-methylpiperazin-1-yl)benzamide]: the “Selectivity MOLT/Tbr” value amounted to 6.9.
Same read-out and setting: with `CN1CCN(c2ccc(C(=O)Nc3n[nH]c4c3CN(C(=O)Cc3cc(F)cc(F)c3F)C4)cc2)CC1` [Compound 16, 4-(4-Methylpiperazin-1-yl)-N-(5-(2-(2,3,5-trifluorophenyl)acetyl)-1,4,5,6-tetrahydropyrrolo[3,4-c]pyrazol-3-yl)benzamide] the figure was 1.2; with `CN1CCN(c2ccc(C(=O)Nc3n[nH]c4c3CN(C(=O)Cc3cc(F)cc(F)c3)C4)cc2)CC1` [Compound 18, N-(5-(2-(3,5-Difluorophenyl)acetyl)-1,4,5,6-tetrahydropyrrolo[3,4-c]pyrazol-3-yl)-4-(4-methylpiperazin-1-yl)benzamide], 0.7; with `Cc1[nH]c2ccccc2c1CC(=O)N1Cc2[nH]nc(NC(=O)c3ccc(N4CCN(C)CC4)cc3)c2C1` [Compound 17, N-(5-(2-(2-Methyl-1H-indol-3-yl)acetyl)-1,4,5,6-tetrahydropyrrolo[3,4-c]pyrazol-3-yl)-4-(4-methylpiperazin-1-yl)benzamide], 1.0.
